According to the NIST ThermoML archive (doi:10.1021/je900732r):
“And” between values parts separate entries of the source, which are not always exact repeats. Identical values can stand only once.

Key:
[1] = Liquid; for mass density: 101 kPa
[2] = mn = molality of the nth substance listed, in mol/kg; conditions: 101 kPa, Liquid

C[S+](C)[O-] [dimethyl sulfoxide]
[1]
Conditions	mass density
293.15 K	1100.22 kg/m3 and 1100.23 kg/m3
298.15 K	1095.19 kg/m3 and 1095.2 kg/m3
303.15 K	1090.17 kg/m3 and 1090.18 kg/m3
313.15 K	1080.12 kg/m3 and 1080.12 kg/m3
323.15 K	1070.08 kg/m3 and 1070.08 kg/m3
333.15 K	1060.04 kg/m3 and 1060.03 kg/m3

CO [methanol]
[1]
Conditions	mass density
283.15 K	800.55 kg/m3 and 800.541 kg/m3 and 800.548 kg/m3
288.15 K	795.872 kg/m3 and 795.866 kg/m3 and 795.857 kg/m3
293.15 K	791.172 kg/m3 and 791.169 kg/m3 and 791.162 kg/m3
298.15 K	786.46 kg/m3 and 786.452 kg/m3 and 786.464 kg/m3
303.15 K	781.742 kg/m3 and 781.733 kg/m3 and 781.722 kg/m3
308.15 K	776.992 kg/m3 and 776.979 kg/m3 and 776.978 kg/m3
313.15 K	772.214 kg/m3 and 772.189 kg/m3 and 772.2 kg/m3

Conditions	speed of sound [m/s]
[1], 298.15 K, 101.33 kPa, Pulse-echo method	1101.2

[Ni+2].[O-][Cl+3]([O-])([O-])[O-].[O-][Cl+3]([O-])([O-])[O-] [nickel perchlorate] + C[S+](C)[O-]
mass density [kg/m3], [2]
Conditions	293.15 K	298.15 K	303.15 K	313.15 K	323.15 K	333.15 K
m1 = 0.01259	1102.91	1097.89	1092.88	1082.85	1072.82	1062.8
m1 = 0.01738	1103.94	1098.92	1093.91	1083.88	1073.87	1063.85
m1 = 0.02515	1105.61	1100.6	1095.59	1085.57	1075.56	1065.56
m1 = 0.03153	1106.98	1101.97	1096.96	1086.96	1076.96	1066.96
m1 = 0.03816	1108.41	1103.4	1098.4	1088.4	1078.41	1068.42
m1 = 0.051	1111.18	1106.18	1101.18	1091.2	1081.23	1071.27
m1 = 0.06341	1113.88	1108.88	1103.89	1093.92	1083.97	1074.01
m1 = 0.07675	1116.78	1111.79	1106.81	1096.86	1086.92	1076.99
m1 = 0.08797	1119.23	1114.24	1109.27	1099.34	1089.42	1079.5
m1 = 0.1004	1121.96	1116.98	1112.02	1102.1	1092.19	1082.3
m1 = 0.1126	1124.63	1119.67	1114.7	1104.8	1094.91	1085.03
m1 = 0.1251	1127.4	1122.43	1117.49	1107.6	1097.73	1087.86
